Measured values taken from patent US20040048821A1, “Enhancement of drug cytotoxicity in tumor cells containing mutant Rb gene” (Cold Spring Harbor Laboratory, priority 1997, published 2004).

Legend:
Type in all cases: cell-based, human
[1] = system: BT-549 breast carcinoma cells; assay: Drug cytotoxicity (adriamycin) in BT-549 breast carcinoma cells; conditions: BT549 cells containing a control vector
Protocol: (§1) A control vector, E1A or the E1A mutants (ΔN or ΔCR2) were introduced into tumor cells via retroviral mediated gene transfer and analyzed for drug cytoxicity within a few days of gene transfer. Cell populations were treated with adriamycin or tumor necrosis factor a (or both).

Snos2 osteosarcoma cells = assay: Drug cytotoxicity (adriamycin, TNF) in Snos2 osteosarcoma cells; conditions: Snos2 cells with control vector, doses tested
Protocol: as §1

U2OS osteosarcoma cells = assay: Drug cytotoxicity (adriamycin, TNF) in U2OS osteosarcoma cells; conditions: U2OS cells with control vector, doses tested
Protocol: as §1

## COc1cccc2c1C(=O)c1c(O)c3c(c(O)c1C2=O)C[C@@](O)(C(=O)CO)C[C@@H]3O[C@H]1C[C@H](N)[C@H](O)[C@H](C)O1 [adriamycin]
[1]
  apoptosis following drug treatment: unable to induce apoptosis
Snos2 osteosarcoma cells
  apoptosis following drug treatment: do not undergo apoptosis
U2OS osteosarcoma cells
  apoptosis / cell death following drug treatment: do not undergo apoptosis
